pIC50: −log10 of the molar value. Like-named read-outs stand apart in the source and are kept apart here.
How the values were obtained:
A549 cells = experiment: MTT cell viability of A549 cells, dark and 660 nm light irradiation; type: cell-based; conditions: for pIC50: 24 h
Protocol: (§1) A549 and BEAS-2B cells were obtained from ATCC with reference numbers CCL-185 and CRL-9609, respectively. A549 cells were cultured in DMEM (with 2 mM L-glutamine, Gibco, United States), while RPMI 1640 (with 2 mM L-glutamine, Gibco, United States) was used for BEAS-2B cells. Both media were supplemented with 10% fetal bovine serum (FBS) (Gibco, United States), and cells were cultured in an incubator with a humidified atmosphere of 5% CO2 at 37 °C.[24]
(§2) For the evaluation of cytotoxic activity, an MTT assay was employed. Cells were seeded 1 day prior to treatment in 96-well plates at a concentration of 20,000 cells/mL. Followed by overnight incubation, the cells were exposed to LuPcPox(OAc), AB3TPP-Pc, AB3TPP-Por-C4, PP-Por-C6, H2TPP, and ZnPc molecules. All molecules were dispersed in DMSO. The working concentrations of the molecules contain <0.1% (v/v) of DMSO. Time-point assays were performed after 24 and 48 h. The final concentration of MTT was 0.5 mg/mL, and after 3 h incubation, absorbances were measured at 545 nm. The absorbance of the blank group which was the samples containing media with 10% FBS was subtracted from the measurements and cell viability was determined by the following formula.[52] The control group was composed of nontreated cells. Cell viability (%) = (absorbance value of sample/absorbance value of control) × 100.
(§3) The cells seeded at a concentration of 20,000 cells/mL in the 96-well plates were irradiated at 660 nm using an LED light array producing a flux of 0.036 J cm^–2 s^–1 (0.036 W/cm^2). In order to determine the cytotoxic effects of Pcs under light, one group of each cell line was exposed to an LED array for 30 min at room temperature and then returned to the incubator, while another group was incubated in the dark.[24] The delivered red photons on the cells were measured by a calibrated PAR meter (Apogee SQ-520). The temperature of the chamber under continuous light flux was monitored synchronously for ensuring the stability of the conditions.[53]
(§4) The cells were seeded at a concentration of 20,000 cells/mL on 96-well plates and incubated for 24 h. The Pcs were added in 0.1, 2.5, 5, 10, 25, and 50 μM concentrations for evaluating the toxicity with/without light except for LuPcPox(OAc). The LuPcPox(OAc) was added into the wells as 0.01, 0.03, 0.09, 0.25, 0.50, and 1 μM concentration because a concentration over 1.0 μM kills the cells immediately. The Pcs in the cell media were discarded, and a fresh medium was added to the cells to remove noninternalized molecules. The viability of the cells was recorded for 24 and 48 h after the addition of Pcs. The cells were irradiated for 30 min.
(§5) IC50 values of the Pcs were determined by fitting the cell’s viability curve acquired from the spectroscopic data. All the values were obtained by using Origin Software (Figure 7).

BEAS-2B cells = experiment: MTT cell viability of BEAS-2B cells, dark and 660 nm light irradiation; type: cell-based
Protocol: as §1, §2, §3, §4, §5

[1] = Fluorescence quantum yield, comparative method; type: physicochemical; conditions: THF
Protocol: Excitation spectra in the Q-band region have been obtained by monitoring the fluorescence emission spectra at the indicated wavelength of porphyrins and phthalocyanine compounds. The fluorescence quantum yields (ΦF) of all structures were determined in THF, using a comparative method. The values were 0.009, 0.14, 0.13, and 0.13, for LuPcPox(OAc), AB3TPP-Pc, AB3TPP-Por-C4, and AB3TPP-Por-C6, respectively. The lowest ΦF value 0.009 belongs to LuPcPox(OAc) and is close to the value (0.004) obtained in DMSO in our previous study.[24] This could be the result of the higher atomic number of lutetium in the cavity of phthalocyanine which may facilitate intersystem crossing to its excited triplet state after excitation. However, the difference and purpose of this study from our previous work are to examine whether there will be a change in the fluorescence property with the addition of the mitochondria targeting the TPP group to the structure. We achieved this goal. The ΦF value of AB3TPP-Pc was 0.14, although it was lower than the reference molecule (ZnPc ΦF= 0.25),[43] and the presence of the TPP group on the structure increased the fluorescence efficiency approximately 15 times that of LuPcPox(OAc) ΦF = 0.009. […] The normalized absorption, excitation, and emission spectra for all compounds are shown in Figure 3, and ΦF values are given in Table 2.

[2] = Fluorescence lifetime, TCSPC; type: physicochemical; conditions: THF, mono-exponential decay
Protocol: Luminescence lifetime measurements were performed on a fluorescence spectroscopy Fluorolog-3 (HORIBA Jobin Yvon) system in the single-photon counting (TCSPC) mode. A NanoLED light source (HORIBA Jobin Yvon) of λmax 390 nm was used for 395 nm excitation. All measurements were carried out in 0.2 ab. solutions in THF at room temperature. […] AB3TPP-Pc and LuPcPox(OAc) show a biexponential decay. The short-lived species are due to component features τf of 2.54 ns (responsible for 35.78%) and τf of 2.14 ns (responsible for 32.47%) photons emitted by AB3TPP-Pc and LuPcPox(OAc), respectively. The longer lifetime has a τf of 4.77 ns (assume 64.22%) and 3.11 ns (assume 67.53%) of emission for AB3TPP-Pc and LuPcPox(OAc), respectively.

[3] = Singlet-oxygen quantum yield, direct method (phosphorescence); type: physicochemical; conditions: for ΦΔ singlet-oxygen quantum yield: THF
Protocol: For PDT, tumor cells are killed by ROS that is produced by a photosensitizer; thus, the production of ^1O2 by the photosensitizer plays a vitally important role in PDT.[46] To evaluate the photosensitizing properties of novel macrocyclic structures, singlet-oxygen quantum yields have been evaluated by a direct method in THF. Singlet-oxygen phosphorescence spectra for all compounds excited with a xenon-arc source at their respective absorption maxima were recorded by a near-IR-sensitive detector. ZnPc and H2TPP were used as the standard for phthalocyanine and porphyrin derivatives that have singlet oxygen yields of 0.53[47] and 0.58[33],[34] in THF, respectively. Singlet-oxygen phosphorescence spectra of Pc and Por. derivatives in THF at equal absorbance (0.23) were obtained to directly determine ΦΔ (Figures S20 and S21). […] Apparently, AB3TPP-Pc is almost three times as efficient as LuPcPox(OAc) in producing singlet oxygen, matching well with our proposal that the TPP-conjugated phthalocyanine could serve as an ideal candidate for mitochondrial-targeted PDT reagent.

[4] = UV-vis absorption, extinction coefficient at 660 nm; type: physicochemical; conditions: 2 × 10^–6 M in THF
Protocol: In our study, the Lambert–Beer law indicating a linear relationship between absorbance and concentrations was obeyed for all porphyrin and phthalocyanine compounds in dimethylsulfoxide (DMSO) in the whole 2–8 μM concentration measurement range (Figure 2). The UV–vis spectra of macrocyclic compounds were recorded in both DMSO and tetrahydrofuran (THF), solvents in which all compounds are soluble (Figures S13–S19). […] This diverse absorption behavior of complexes comes from their different subunits which are isoindoles and pyrroles in the skeleton of macrocycles for phthalocyanine and porphyrin, respectively.[40],[41]Table 1 summarizes the wavelengths and associated extinction coefficients in Q and Soret (B) bands in DMSO.

[5] = reference substance; cited from earlier work
[6] = THF, standard; cited from earlier work
[7] = Homo sapiens, A549, light (660 nm, 30 min)
[8] = Homo sapiens, dark, 24 h, read-out: IC50
[9] = Homo sapiens, light (660 nm, 30 min), 24 h, read-out: IC50

Row | Molecule | pIC50 (A549 cells; Homo sapiens, A549, dark) | pIC50 (A549 cells; [7]) | ΦF fluorescence quantum yield [1] | τF fluorescence lifetime [2] | ΦΔ singlet-oxygen quantum yield [3] | log ε (660 nm) [4] | pIC50 (BEAS-2B cells; [8]) | pIC50 (BEAS-2B cells; [9]) | further results
1 | COCCOCCOCCSc1cc2c(cc1SCCOCCOCCOC)-c1nc-2nc2[nH]c(nc3nc(nc4[nH]c(n1)c1cc(SCCOCCOCCOC)c(SCCOCCOCCOC)cc41)-c1cc(SCCOCCOCCOC)c(SCCOCCOCCOC)cc1-3)c1cc(SCCCCCCOCCCCCC[P+](c3ccccc3)(c3ccccc3)c3ccccc3)ccc21 [AB3TPP-Pc] | – | – | 0.14 | – | 0.75 | 4.18 | – | – | cytotoxic concentration (BEAS-2B cells; dark, 24 and 48 h): < 6 µM; pIC50 (BEAS-2B cells; light, 48 h, read-out: IC50 (cytotoxic concentration)): 5.62; increase of fluorescence efficiency over LuPcPox(OAc) [1]: approximately 15 times; singlet oxygen-producing capacity compared to LuPcPox(OAc) [3]: ~3 times; singlet oxygen-producing capacity, more efficient with respect to ZnPc [3]: 50%
2 | COc1ccc(-c2c3nc(c(-c4ccc(OC)cc4)c4ccc([nH]4)c(-c4ccc(OCCCC[P+](c5ccccc5)(c5ccccc5)c5ccccc5)cc4)c4nc(c(-c5ccc(OC)cc5)c5ccc2[nH]5)C=C4)C=C3)cc1 [AB3TPP-Por-C4] | < 4.30 | 4.99 | 0.13 | 8.87 ns | 0.57 | 3.43 | 4.94 | > 7.00 | increase of toxicity under light compared to the dark (from IC50) (A549 cells; A549): 2 fold; cytotoxicity (in words) (A549 cells; A549, dark, up to 48 h): noncytotoxic

The next lines start with results.

Row | pIC50 (A549 cells; Homo sapiens, A549, dark) | pIC50 (A549 cells; [7]) | ΦF fluorescence quantum yield [1] | τF fluorescence lifetime [2] | ΦΔ singlet-oxygen quantum yield [3] | log ε (660 nm) [4] | Molecule | pIC50 (BEAS-2B cells; [8]) | pIC50 (BEAS-2B cells; [9]) | further results
3 | 4.60 | 5.44 | 0.13 | 8.91 ns | 0.58 | 3.56 | COc1ccc(-c2c3nc(c(-c4ccc(OC)cc4)c4ccc([nH]4)c(-c4ccc(OCCCCCC[P+](c5ccccc5)(c5ccccc5)c5ccccc5)cc4)c4nc(c(-c5ccc(OC)cc5)c5ccc2[nH]5)C=C4)C=C3)cc1 [AB3TPP-Por-C6] | 4.99 | > 7.00 | reduction of cell viability compared to AB3Por-C4 (phototoxicity) (A549 cells; A549): 2 fold; reduction of cell viability compared to H2TPP (phototoxicity) (A549 cells; A549): 5 fold; critical concentration (decrease in viability) (A549 cells; A549, after light irradiation, 24 and 48 h): 2.5 µM
4 | – | – | 0.13 | 10.3 ns | 0.58 | – | Tetraphenylporphyrin [H2TPP, reference compound] | – | – | pIC50 (A549 cells; A549, dark): 4.71; pIC50 (A549 cells; A549, light (660 nm, 30 min)): 4.71; pIC50 (BEAS-2B cells; dark, 24 h, read-out: IC50): 4.92; pIC50 (BEAS-2B cells; light (660 nm, 30 min), 24 h, read-out: IC50): 5.17; ΦF fluorescence quantum yield [5]: 0.13; ΦΔ singlet-oxygen quantum yield [6]: 0.58
5 | – | – | – | 2.72 ns | – | – | [Zn+2].c1ccc2c(c1)-c1nc-2nc2[n-]c(nc3nc([n-]c4nc(n1)-c1ccccc1-4)-c1ccccc1-3)c1ccccc21 [ZnPc, zinc (II)phthalocyanine, reference compound] | – | – | –
